Results: article PMC10379010, “Short Peptides of Innate Immunity Protein Tag7 (PGLYRP1) Selectively Induce Inhibition or Activation of Tumor Cell Death via TNF Receptor” (International Journal of Molecular Sciences, 2023)
Where a SMILES comes first, the peptide text is derived from it.

Assays:
[1] = tested on: K562 cells (killed by cytotoxic CD4+-T lymphocytes); experiment: Inhibition of the cytotoxic activity of CD4+-T lymphocytes; type: cell-based; details: K562 cells preincubated with peptide 30 min (1 nM), then cytotoxic lymphocytes, ratio 1:20, 24 h; Cytotox 96; n = 5
Method: Figure 5 (a) The peptides were biotinylated and added to cells of the K562 line, followed by incubation for 1 h. Next, the peptides were cross-linked with Hsp70 on the cell surface with BS^3 reagent (Sigma-Aldrich, St. Louis, MO, USA). After stopping the reaction, the cells were lysed in RIP-A (Sigma-Aldrich, St. Louis, MO, USA) buffer in the presence of protease inhibitors. The lysate was purified by magnetic separation on M280 Streptavidin Beads. The obtained fractions containing 17.1A-Hsp70 and 17.1B-Hsp70 were analyzed using 12% SDS-PAGE electrophoresis and Western blot. Complexes were detected using primary antibodies abHsp70 poly-AT and secondary antibodies anti-rabbit peroxidase-linked (ECL). (b) Tumor cells of the K562 line were preincubated with peptides 17.1, 17.1A and 17.1B for 30 min., and then cytotoxic lymphocytes were added and cytotoxic activity was determined (24 h incubation), n = 5 for each point, (* p-value < 0.05). […]
For the cytotoxicity tests, target cells were cultured in 96-well plates (6 × 10^4 cells per well) and mixed with lymphocytes at a ratio of 1:20. The cytotoxicity was measured after 24 h of incubation. […] The cytotoxic activity of the lymphocytes was determined using the Cytotox 96 analysis kit (Promega, Madison, WI, USA) in accordance with the manufacturer’s protocol.

Hsp70 = target: T1, Hsp70 (Homo sapiens, UniProt P0DMV8); experiment: Microscale thermophoresis, binding to labeled Hsp70; details: labeled Hsp70 200 nM, 16 ligand concentrations, 20 min, room temperature, triplicate, average ± SD, read-out: Apparent dissociation constant (Kd) with Hsp70
T1 construct: made in house
Excerpt: (§1) Protein–protein interactions of sTNFR1 and Hsp70 with the peptides 17.1, 17.1A and 17.1B and the Tag7 protein were quantified using microscale thermophoresis (MST). This biophysical method is based on the movement of molecules in a temperature gradient, which strongly depends on the charge, the hydration shell and the size of the moving molecules. At least one of these qualities usually changes during the formation of the complex. Therefore, thermophoresis provides a sensitive and reliable method for analyzing and quantifying protein–protein interactions. […] The obtained constants indicate a highly specific interaction of Tag7, 17.1 and 17.1A with sTNFR1. Similarly, clear changes in the thermophoretic signal were observed when Tag7, 17.1 and 17.1B were added to the labeled Hsp70. […]
(§2) The purified sTNFR1 and Hsp70 were fluorescently labeled using the Alexa Fluor 633 or Alexa Fluor 488 staining kit (Eugene, OR, USA) in accordance with the manufacturer’s instructions. sTNFR1 and Hsp70 (200 nM) were incubated for 20 min with each compound in the dark at room temperature at 16 different concentrations obtained by sequential dilution, starting from the highest soluble concentration. The samples were loaded into glass capillaries (Monolith NT Capillaries) and analyzed by thermophoresis using Nano-Temperature Monolith NT 115 apparatus (IR laser power 10%). […]

[2] = tested on: L929 cells (TNFR1-induced cytotoxicity); experiment: Inhibition of TNFR1-dependent cytotoxicity, L929 cells; type: cell-based, mouse; details: 24 h, peptide added 30 min before TNF (1 nM), only at peptide concentration of 100 nM, n = 5
Method: Figure 2 Cells (HL-60 (a–d) or L-929 (e,f)) were preincubated with peptide 17.1A (a,b) or 17.1B (c–f) for 30 min, and then a cytotoxic agent (TNF, Tag7-Hsp70 complex or autoantibodies) was added and cytotoxic activity was then determined after 3 (a,c,e) or 24 h (b,d,f) of cell incubation. n = 5 for each group). (* p-value < 0.05).
(L929 cells, 24 h of incubation, peptides were added 30 min before incubation with TNF (1 nM)) n = 5 for each point.
For the cytotoxicity tests, target cells were cultured in 96-well plates (6 × 10^4 cells per well) and mixed with lymphocytes at a ratio of 1:20. The cytotoxicity was measured after 24 h of incubation. The inhibition test was performed with peptides 17.1, 17.1A and 17.1B at a concentration of 1 nM. The cytotoxic activity of the lymphocytes was determined using the Cytotox 96 analysis kit (Promega, Madison, WI, USA) in accordance with the manufacturer’s protocol.

sTNFR1 = target: T2, sTNFR1 (Homo sapiens, UniProt P19438); experiment: Microscale thermophoresis, binding to labeled sTNFR1; details: labeled sTNFR1 200 nM, 16 ligand concentrations, 20 min, room temperature, triplicate, average ± SD, read-out: Apparent dissociation constant (Kd) with sTNFR1
T2 construct: the soluble extracellular domain of its receptor (sTNFR1); made in house
T2 sequence (P19438 30-211 limits assumed): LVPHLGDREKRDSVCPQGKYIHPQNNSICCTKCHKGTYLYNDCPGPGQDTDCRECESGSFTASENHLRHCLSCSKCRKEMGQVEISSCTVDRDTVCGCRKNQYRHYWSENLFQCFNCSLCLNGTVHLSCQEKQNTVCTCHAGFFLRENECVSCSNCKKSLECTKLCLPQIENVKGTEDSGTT
Excerpt: as §1, §2

T1 sequence (P0DMV8 whole entry): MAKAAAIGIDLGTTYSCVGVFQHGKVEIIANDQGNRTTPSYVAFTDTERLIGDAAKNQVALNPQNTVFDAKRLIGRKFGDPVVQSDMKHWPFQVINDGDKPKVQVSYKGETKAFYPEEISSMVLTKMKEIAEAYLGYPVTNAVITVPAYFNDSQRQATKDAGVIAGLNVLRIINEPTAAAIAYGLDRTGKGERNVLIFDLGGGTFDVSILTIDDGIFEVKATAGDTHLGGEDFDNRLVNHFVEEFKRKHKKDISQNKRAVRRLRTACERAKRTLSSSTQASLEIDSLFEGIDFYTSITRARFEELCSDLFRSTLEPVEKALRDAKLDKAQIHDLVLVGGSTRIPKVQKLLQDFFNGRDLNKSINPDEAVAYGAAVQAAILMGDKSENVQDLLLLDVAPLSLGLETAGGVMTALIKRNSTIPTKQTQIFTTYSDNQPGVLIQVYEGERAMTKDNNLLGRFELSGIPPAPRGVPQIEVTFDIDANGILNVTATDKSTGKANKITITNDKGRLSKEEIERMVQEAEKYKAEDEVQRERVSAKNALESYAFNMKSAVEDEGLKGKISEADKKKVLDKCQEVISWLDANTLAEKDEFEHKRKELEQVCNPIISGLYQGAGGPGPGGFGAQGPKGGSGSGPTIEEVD

Kd (Hsp70) | Kd (sTNFR1) | SMILES | Effect on the cytotoxic activity of CD4+-T lymphocytes [1] | Inhibitory effect on TNF cytotoxic activity at 100 nM [2]
3.15 ± 0.7 nM | 6690 ± 120 nM | CC(C)C[C@H](NC(=O)[C@@H](NC(=O)[C@H](Cc1ccc(O)cc1)NC(=O)[C@H](CC(N)=O)NC(=O)[C@H](CO)NC(=O)[C@@H](N)CCCNC(=N)N)C(C)C)C(=O)N[C@@H](CCCCN)C(=O)NCC(=O)O [17.1B, RSNYVLKG] (H-RSNYVLKG-OH) | completely block the cytotoxic effect of lymphocytes | weak inhibitory effect
222 ± 15 nM | – | CC(C)[C@H](NC(=O)[C@H](CC(=O)O)NC(=O)[C@H](CCCNC(=N)N)NC(=O)[C@@H](N)Cc1c[nH]cn1)C(=O)N[C@@H](CCC(N)=O)C(=O)N[C@@H](CCCNC(=N)N)C(=O)N[C@H](C(=O)O)[C@@H](C)O [17.1A, HRDVQRT] (H-HRDVQRT-OH) | no effect on cell death | –
